Patent publication US8765779B2, “Tricyclic derivatives and their pharmaceutical use and compositions” (Cephalon, Inc., priority 2009, dated 2014)
Structures can show the parent of a compound that is named as a salt.

target: T1, human 5-HT6 receptor (Homo sapiens, UniProt P50406); assay: Human 5-HT6 Receptor Binding Assay ([3H]LSD displacement, scintillation beads); details: membranes of CHO-K1 cells with recombinant human 5-HT6, 4 nM [3H]LSD; Table 1, class symbols; read-out: h5-HT6 (Ki)
T1 construct: host or cells: CHO-K1 cells, stably transfected; membranes prepared in house
Experimental: Human 5-HT6 Receptor Binding Assay
Membranes were prepared from CHO—K1 cells stably transfected with the human 5-HT6 receptor (Euroscreen; ES-316-C). The cells were grown in Gibco Advanced DMEM-F12 (Cat#12634010) containing 2% dialyzed FBS (Hyclone Cat#SH30079.03). The cells were harvested in phosphate buffered saline (PBS) containing 0.1 mM EDTA and pelleted by centrifugation (1000×g), the supernatant was discarded and the pellets were stored at −80° C. prior to membrane preparation. Membranes were prepared as previously described (J Bio Chem. 1992, 267 (14) 9844-51). Briefly, frozen cell pellet was resuspended in a lysis buffer containing 5 mM Tris-HCl (pH 7.5), 5 mM EDTA and 1 complete EDTA-free protease inhibitor tablet (Roche Applied Science, Indianapolis, Ind.) per 50 mL buffer, and homogenized with a tissue homogenizer. The cell lysate was then centrifuged at 40,000×g for 30 min at 4° C. to collect the membranes. The membrane pellets were washed in membrane buffer (50 mM Tris-HCl (pH 7.5), 0.6 mM EDTA, 5 mM MgCl2, 1 complete EDTA-free protease inhibitor tablet per 50 mL buffer) using a tissue homogenizer. The membranes were centrifuged at 40,000×g for 30 min at 4° C. and the pellets were resuspended in membrane buffer containing 250 mM sucrose, and protein concentration was determined using the Coomassie Plus kit (Pierce Biotechnology, Rockford, Ill.).
Membranes prepared from cells expressing recombinant human 5-HT6 receptor (h5-HT6) were resuspended in assay buffer containing 50 mM Tris HCl, (pH7.4), 4 mM CaCl2, 10 μg/mL saponin, and 0.1% (w/v) ascorbic acid. Membranes were preincubated using 1.75 μg membrane protein and 0.25 mg FlashBlue scintillation beads (PerkinElmer catalogue #FB001) per well at 4° for 30 min. […] Test compounds or assay controls for total and non-specific binding were diluted in DMSO as 100× solutions and serially diluted by half log concentrations on a Perkin Elmer JANUS Automated Workstation. Serotonin (10 μM final concentration) was used to determine non-specific binding in the assay. Plates were read using the Microbeta Trilux 1450 LSC and luminescence counter. Data were analyzed by nonlinear […] using the dose-response equation (variable slope) to calculate IC50 in XLfit4 (ID Business Solutions Inc.): y=(Bottom+((Top−Bottom)/(1+((IC50/x)^Hill slope))))
Ki value was then calculated according to the Cheng-Prusoff method using the equation below (Cheng and Prusoff, 1973): Ki,app=IC50/(1+[radioligand]/Kd))

T1 sequence (P50406 whole entry): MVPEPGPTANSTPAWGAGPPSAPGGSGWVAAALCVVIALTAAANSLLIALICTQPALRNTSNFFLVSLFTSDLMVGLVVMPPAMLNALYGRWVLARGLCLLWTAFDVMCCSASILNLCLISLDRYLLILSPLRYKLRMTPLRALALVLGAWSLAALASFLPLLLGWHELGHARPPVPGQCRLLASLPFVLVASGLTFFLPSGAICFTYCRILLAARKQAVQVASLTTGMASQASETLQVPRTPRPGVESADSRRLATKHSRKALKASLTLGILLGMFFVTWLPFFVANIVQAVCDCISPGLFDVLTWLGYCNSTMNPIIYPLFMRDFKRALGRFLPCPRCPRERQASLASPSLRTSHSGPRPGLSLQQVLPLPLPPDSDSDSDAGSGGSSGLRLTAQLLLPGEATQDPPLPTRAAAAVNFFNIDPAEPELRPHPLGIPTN

Compound	Ki
O=S(=O)(c1cccc(F)c1)c1ccc2c3c(oc2c1)C1(CCC1)NCC3 [Example 25, 7-[(3-fluorophenyl)sulfonyl]-3,4-dihydro-2H-spiro[1-benzofuro[2,3-c]pyridine-1,1′-cyclobutane]]	< 500 nM
CC(=O)N(C)CCC1NCCc2c1oc1cc(S(=O)(=O)c3cccc(Cl)c3)ccc21 (racemic) [Example 542, N-(2-{7-[(3-chlorophenyl)sulfonyl]-1,2,3,4-tetrahydro[1]benzofuro[2,3-c]pyridin-1-yl}ethyl)-N-methylacetamide]	< 500 nM
COc1cc(OCC2CCOCC2)cc(S(=O)(=O)c2ccc3c(c2)OC2CNCCC32)c1 (stereo not shown) [Example 584]	< 500 nM
Ic1ccc2c3c([nH]c2c1)C1(CCCOC1)NCC3 (stereo not drawn) [Example 547, 7-Iodo-2,3,4,5′,6′,9-hexahydro-4′H-spiro[beta-carboline-1,3′-pyran]trifluoroacetate]	< 500 nM
O=S(=O)(Oc1ccc2c(c1)OC1CNCCC21)c1cccc(F)c1 (stereo not shown) [Example 643]	< 500 nM
CC1(C)CNC(C2CCOCC2)c2oc3cc(S(=O)(=O)c4cccc(F)c4)ccc3c21 (racemic) [Example 45, 7-[(3-fluorophenyl)sulfonyl]-4,4-dimethyl-1-(tetrahydro-2H-pyran-4-yl)-1,2,3,4-tetrahydro[1]benzofuro[2,3-c]pyridine]	< 500 nM
O=S(=O)(c1ccc2c3c(oc2c1)CNCC3)c1cccnc1F [Example 434]	< 500 nM
O=S(=O)(c1cccc(F)c1)c1ccc2c(c1)OC1CNCCC21 (stereo not shown) [Example 117]	< 500 nM
CC(=O)NCC1NCCc2c1oc1cc(S(=O)(=O)c3cccc(F)c3)ccc21 (racemic) [Example 535, N-({7-[(3-fluorophenyl)sulfonyl]-1,2,3,4-tetrahydro[1]benzofuro[2,3-c]pyridin-1-yl}methyl)acetamide]	< 500 nM
[O-][S+](c1ccc2c(c1)OC1CNCCC21)c1cc(F)cc(F)c1F (stereo not shown) [Example 385]	> 1000 nM
O=S(=O)(c1ccc(Cl)c(C(F)(F)F)c1)c1ccc2c3c(oc2c1)CNCC3 [Example 210]	< 500 nM
CC12CCNCC1Oc1ccc(OS(=O)(=O)c3cccc4ccccc34)cc12 (stereo not shown) [Example 768]	500 to 1000 nM
O=S(=O)(c1ccccc1)c1ccc2c3c(oc2c1)C1(CCCOC1)NCC3 (single isomer, unassigned) [Example 544, 7-(Phenylsulfonyl)-3,4,5′,6′-tetrahydro-2H,4′H-spiro[1-benzofuro[2,3-c]pyridine-1,3′-pyran]hydrochloride]	500 to 1000 nM
Cc1ccc(S(=O)(=O)Oc2ccc3c(c2)C2CCNCC2O3)cc1C (stereo not shown) [Example 706]	< 500 nM
O=S(=O)(Oc1ccc2c(c1)OC1CNCCC21)c1cc2ccccc2o1 (stereo not shown) [Example 655]	< 500 nM
O=S(=O)(c1ccccc1)c1ccc2c3c([nH]c2c1)C1(CCOCC1)NCC3 [Example 545, 7-(Phenylsulfonyl)-2,2′,3,3′,4,5′,6′,9-octahydrospiro[beta-carboline-1,4′-pyran]trifluoroacetate]	< 500 nM
O=S(=O)(c1cncc(Cl)c1)c1ccc2c3c(oc2c1)CNCC3 [Example 437]	< 500 nM
O=S(=O)(c1cncc(F)c1)c1ccc2c3c(oc2c1)CNCC3 [Example 441]	< 500 nM
CC1(C)NCCc2c1oc1cc(S(=O)(=O)c3cncc(F)c3)ccc21 [Example 381]	< 500 nM
CC12CCNCC1Oc1cc(S(=O)(=O)c3ccccn3)ccc12 (racemic) [Example 8, 4a-methyl-7-(pyridin-2-ylsulfonyl)-1,2,3,4,4a,9a-hexahydro[1]benzofuro[2,3-c]pyridine]	> 1000 nM
O=S(=O)(Nc1cccc(F)c1F)c1ccc2c(c1)C1CCNCC1O2 (stereo not shown) [Example 842]	> 1000 nM
CC(=O)NCC1(C)NCCc2c1oc1cc(S(=O)(=O)c3cccc(F)c3)ccc21 (stereo not shown) [Example 631, N-({7-[(3-fluorophenyl)sulfonyl]-1-methyl-1,2,3,4-tetrahydro[1]benzofuro[2,3-c]pyridin-1-yl}methyl)acetamide]	< 500 nM
CC12CCNCC1Oc1ccc(OS(=O)(=O)Cc3ccc(Cl)cc3)cc12 (stereo not shown) [Example 789]	> 1000 nM

Compound	Ki
O=S(=O)(Oc1ccc2c(c1)OC1CNCCC21)c1ccc2c(c1)OCCO2 (stereo not shown) [Example 668]	< 500 nM
O=S(=O)(c1ccc(Cl)c(Cl)c1)c1ccc2oc3c(c2c1)CCNC3 [Example 261, 6-[(3,4-dichlorophenyl)sulfonyl]-1,2,3,4-tetrahydro[1]benzofuro[2,3-c]pyridine]	< 500 nM
CC(C)c1ccc(S(=O)(=O)Oc2ccc3c(c2)OC2CNCCC32)cc1 (stereo not shown) [Example 795]	< 500 nM
O=S(=O)(c1ccc2c(c1)OC1CNCCC21)c1cccc2cccnc12 (stereo not shown) [Example 333]	< 500 nM
O=S(=O)(c1ccc(Cl)c(Cl)c1)c1ccc2c3c(oc2c1)CNCC3 [Example 197, 7-[(3,4-dichlorophenyl)sulfonyl]-1,2,3,4-tetrahydro[1]benzofuro[2,3-c]pyridine]	< 500 nM
CC12CCNCC1Oc1cc(S(=O)(=O)c3cc(F)cc(F)c3)ccc12 (stereo not shown) [Example 359]	< 500 nM
O=S(=O)(c1ccncc1)c1ccc2c3c(oc2c1)CNCC3 [Example 344]	500 to 1000 nM
CC1(C)CNCc2oc3cc(S(=O)(=O)c4cc(F)cc(F)c4)ccc3c21 [Example 287]	< 500 nM
CN(C)C(=O)c1cccc(S(=O)(=O)c2ccc3c(c2)OC2CNCCC32C)c1 (stereo not shown) [Example 425]	> 1000 nM
CC12CCNCC1Oc1ccc(OS(=O)(=O)c3ccc4c(c3)OCCO4)cc12 (stereo not shown) [Example 775]	< 500 nM
O=S(=O)(c1cccc(C(F)(F)F)c1)c1ccc2c3c(oc2c1)C1(CCOC1)NCC3 (stereo not shown) [Example 304]	< 500 nM
O=[N+]([O-])c1ccc(S(=O)(=O)c2ccc3c4c(oc3c2)CNCC4)cc1 [Example 205]	< 500 nM
O=S(=O)(Nc1cccc2ccccc12)c1ccc2c(c1)C1CCNCC1O2 (stereo not shown) [Example 837]	> 1000 nM
CC(C)Oc1cc(F)cc(S(=O)(=O)c2ccc3c(c2)OC2CNCCC32)c1 (single isomer, unassigned) [Example 364, 7-(3-Fluoro-5-isopropoxy-benzenesulfonyl)-1,2,3,4,4a,9a-hexahydro-benzo[4,5]furo[2,3-c]pyridine hydrochloride]	< 500 nM
COc1ccc(S(=O)(=O)c2ccc3c4c(oc3c2)CNCC4)cc1F [Example 194]	< 500 nM
CC12CCNCC1Oc1ccc(OS(=O)(=O)Cc3cccc(Cl)c3)cc12 (stereo not shown) [Example 791]	< 500 nM
[O-][S+](c1ccc2c(c1)OC1CNCCC21)c1cccc(F)c1F (stereo not shown) [Example 384]	< 500 nM
O=S(=O)(c1ccc2c(c1)OC1CNCCC21)c1cccc2cccnc12 (stereo not shown) [Example 332]	< 500 nM
O=S(=O)(CC1CCCCC1)Oc1ccc2c(c1)OC1CNCCC21 (stereo not shown) [Example 690]	> 1000 nM
COc1cccc(S(=O)(=O)Nc2ccc3c(c2)C2CCNCC2O3)c1 (stereo not shown) [Example 822]	> 1000 nM
CC1OCCC12NCCc1c2oc2cc(S(=O)(=O)c3cccc(F)c3)ccc12 (single isomer, unassigned) [Example 61, 7-[(3-Fluorophenyl)sulfonyl]-2′-methyl-3,4,4′,5′-tetrahydro-2H-spiro[1-benzofuro[2,3-c]pyridine-1,3′-furan]]	< 500 nM
COCCCOc1cc(OC(C)C)cc(S(=O)(=O)c2ccc3c(c2)OC2CNCCC32)c1 (stereo not shown) [Example 588]	< 500 nM
O=S(=O)(Oc1ccc2c(c1)C1CCNCC1O2)c1ccc(-c2ccccc2)cc1 (stereo not shown) [Example 743]	< 500 nM
